“Also recorded” adds a separate entry of the source.
Experiments:
[1] = test system: humans (normal volunteers); test: Tolerability of intranasal nitric oxide delivery in humans (normal volunteers); assay type: in vivo, human
Excerpt: While nitric oxide may be given intranasally and without inhalation into the lungs to intubated, comatose individuals the tolerability of intranasal nitric oxide in awake humans has not previously been investigated. The inventors have tested the effect of nitric oxide in humans (normal volunteers) during intranasal delivery. […] Therefore it can easily be tolerated by awake, non-intubated patients.

[2] = test system: intubated rodents, carotid artery occlusion model; test: Carotid artery occlusion model, Speckle laser Doppler, intubated rodents; assay type: in vivo
Procedure: (§1) In intubated rodents, the inventors have shown that cerebral blood flow increases by 100% within 60 minutes of intranasal nitric oxide delivery.
Increase in cerebral blood flow is attributable to focal intranasal or intra-oral effect of nitric oxide rather than to systemic absorption of the gas. […] The effect on cerebral blood flow during intranasal delivery of nitric oxide with concomitant air inhalation into the lungs is therefore a focal effect on intranasal and intracranial vasculature attributable specifically to nitric oxide. […] In a non-intubated patient, nitric oxide inhalation can be prevented by occluding the nasal cavity anterior or posterior to the site of gas delivery. This is achieved by means of an anterior occlusion device such a rigid member, an expandable member, a compressible member, a sponge, a porous member, a plug, a balloon, foam and/or combinations of the foregoing, which prevent inhalation through the nostrils while maintaining a high concentration of nitric oxide in the nasal cavity. A non-intubated patient may be allowed to inhale air into the lungs during nitric oxide delivery into the nasal cavity by an optional central lumen with the distal orifice beyond the sites of nasal gas delivery and occlusion device.

[3] = test system: human with focal cerebral ischemia; test: CT perfusion scanning before and after intranasal nitric oxide in intubated patients with cerebral ischemia; assay type: in vivo
intubated rodents = test: Cerebral blood flow by cortical laser Doppler during intranasal nitric oxide in intubated rodents; assay type: in vivo
Procedure: as §1

[4] = Post Rx, one hour of intranasal non-inhaled nitric oxide

[N]=O [nitric oxide]
sensation during intranasal delivery ([1]; concentrations up to 100 PPM, normal volunteers): does not elicit any sensation
tolerability of gas treatment ([1]; high concentration, delivered intra-nasally and without inhalation): tolerated
cerebral ischemia (FIG. 9) ([2]; Speckle laser Doppler tracing, intubated rodents): reduction
perfusion in the ischemic hemisphere ([2]; during the carotid occlusion and following ligature release): improved
Cerebral Blood Flow, Changes in ACA Watershed ([3]; Post Rx): Normalization,
Mean Transit Time, Changes in ACA Watershed ([3]; Post Rx): Normalization
increase in perfusion on L (ACA Watershed) ([3]; Post Rx versus Pre Rx, ischemic left hemisphere): 67% increase in
Cerebral Blood Flow, Left Hemisphere (ischemic) [3, 4]: 52
Cerebral Blood Flow, Right Hemisphere (normal) [3, 4]: 45
Mean Transit Time, Left Hemisphere (ischemic) [3, 4]: 6.0 s
Mean Transit Time, Right Hemisphere (normal) [3, 4]: 6.1 s
cerebral perfusion on CT perfusion scan ([3]; before and after treatment, human with focal cerebral ischemia): improvement; also recorded: augmentation of cerebral perfusion and normalization of regional perfusion abnormalities
cerebral blood flow (FIG. 8) (intubated rodents; cortical laser Doppler, during intranasal administration): doubling
cerebral blood flow increase (intubated rodents; within 60 minutes of intranasal delivery, non-inhaled): 100%

Source: patent US20130273180A1, “SYSTEM AND METHOD FOR IMPROVING OUTCOME OF CEREBRAL ISCHEMIA” (priority 2012, published 2013)
